From US12662469B2 (SIRONAX LTD, priority 2018, dated 2026)
pEC50: −log10 of the molar value.

The compounds below were run on Cell Necrosis (assay: Cell necrosis assay / cell viability assay (necrosis inhibitor activity)). Conditions: necrosis inhibitor activity; EC data for 14-191 extrapolated; read-out: EC50.
Type: cell-based

Row | SMILES | pEC50
1 | O=C(N1CCN(c2ccccc2)CC1)N1N=CCC1c1ccccc1 (centres unmarked) [Compound 91, (5-phenyl-4,5-dihydro-1H-pyrazol-1-yl)(4-phenylpiperazin-1-yl)methanone] | 5.00 to 6.00
2 | O=C(N1CCN(c2cnccn2)CC1)N1N=CCC1c1ccccc1 (centres unmarked) [Compound 86, (5-phenyl-4,5-dihydro-1H-pyrazol-1-yl)(4-(pyrazin-2-yl)piperazin-1-yl)methanone] | 6.00 to 9.00
3 | C[C@@H]1CN(c2ncc(F)cn2)CCN1C(=O)N1N=CCC1c1ccccc1 (stereo partly drawn) [Compound 114A, ((R)-4-(5-fluoropyrimidin-2-yl)-2-methylpiperazin-1-yl)(5-phenyl-4,5-dihydro-1H-pyrazol-1-yl)methanone] | 6.00 to 9.00
4 | O=C(N1CC(Cc2ccccc2Cl)C1)N1N=CCC1c1ccccc1 (centres unmarked) [Compound 47, (3-(2-chlorobenzyl)azetidin-1-yl)(5-phenyl-4,5-dihydro-1H-pyrazol-1-yl)methanone] | 6.00 to 9.00
5 | O=C(N1CC(=Cc2ccc(=O)[nH]c2)C1)N1N=CCC1c1cc(F)cc(F)c1 (centres unmarked) [Compound 187] | 6.00 to 9.00
6 | O=C(N1CC(Oc2nc3c(=O)[nH]ccc3s2)C1)N1N=CCC1c1cc(F)cc(F)c1 (centres unmarked) [Compound 174] | 6.00 to 9.00
7 | O=C(N1CC(Cc2ccc(F)cc2)C1)N1OCC[C@H]1c1ccccc1 [Compound 79, (S)-(3-(4-fluorobenzyl)azetidin-1-yl)(3-phenylisoxazolidin-2-yl)methanone] | 6.00 to 9.00
8 | O=C(N1CC(Oc2ccc(F)nc2)C1)N1N=CCC1c1cc(F)cc(F)c1 (centres unmarked) [Compound 141, (5-(3,5-difluorophenyl)-4,5-dihydro-1H-pyrazol-1-yl)(3-((6-fluoropyridin-3-yl)oxy)azetidin-1-yl)methanone] | 6.00 to 9.00
9 | O=C(N1CC(Oc2ccccc2)C1)N1N=CCC1c1ccccc1 (centres unmarked) [Compound 59] | 6.00 to 9.00
10 | C[C@H]1CN(c2ncc(C#N)cn2)CCN1C(=O)N1N=CCC1c1ccccc1 (stereo partly drawn) [Compound 116B, 2-((3S)-3-methyl-4-(5-phenyl-4,5-dihydro-1H-pyrazole-1-carbonyl)piperazin-1-yl)pyrimidine-5-carbonitrile] | 5.00 to 6.00
11 | C[C@H]1CN(c2ncc(Cl)cn2)CCN1C(=O)N1N=CCC1c1ccccc1 (stereo partly drawn) [Compound 113B, ((S)-4-(5-chloropyrimidin-2-yl)-2-methylpiperazin-1-yl)(5-phenyl-4,5-dihydro-1H-pyrazol-1-yl)methanone] | 5.00 to 6.00
12 | C[C@H]1CN(c2ncc(F)cn2)CCN1C(=O)N1N=CC[C@@H]1c1cccc(F)c1 [Compound 117B, ((R)-5-(3-fluorophenyl)-4,5-dihydro-1H-pyrazol-1-yl)((S)-4-(5-fluoropyrimidin-2-yl)-2-methylpiperazin-1-yl)methanone] | 6.00 to 9.00
13 | O=C(c1ccco1)N1CCN(C(=O)N2N=CCC2c2ccccc2)CC1 (centres unmarked) [Compound 94, (4-(furan-2-carbonyl)piperazin-1-yl)(5-phenyl-4,5-dihydro-1H-pyrazol-1-yl)methanone] | 5.00 to 6.00
14 | O=C(N1CC(Oc2ccc3ccc(=O)[nH]c3c2)C1)N1N=CCC1c1cc(F)cc(F)c1 (centres unmarked) [Compound 189] | 6.00 to 9.00

Same assay, conditions: necrosis inhibitor activity; compounds outside 14-191; read-out: EC50

Row | SMILES | pEC50
15 | O=C1Cc2ccc(OC3CN(C(=O)N4N=CCC4c4cc(F)cc(F)c4)C3)cc2N1 (centres unmarked) [Compound 224, 6-((1-(5-(3,5-difluorophenyl)-4,5-dihydro-1H-pyrazole-1-carbonyl)azetidin-3-yl)oxy)indolin-2-one] | 6.00 to 9.00
16 | N#Cc1cncc(C2CC=NN2C(=O)N2CC(Oc3cc4[nH]nc(F)c4cc3F)C2)c1 (centres unmarked) [Compound 381, 5-(1-(3-((3,5-difluoro-1H-indazol-6-yl)oxy)azetidine-1-carbonyl)-4,5-dihydro-1H-pyrazol-5-yl)nicotinonitrile] | 6.00 to 9.00
17 | N#Cc1cc(F)cc(OC2CN(C(=O)N3N=CC[C@H]3c3cc(F)cc(F)c3)C2)c1 [Compound 237, (S)-3-((1-(5-(3,5-difluorophenyl)-4,5-dihydro-1H-pyrazole-1-carbonyl)azetidin-3-yl)oxy)-5-fluorobenzonitrile] | 6.00 to 9.00
18 | N#Cc1cnc2ccc(N3CCN(C(=O)N4N=CC[C@H]4c4cc(F)cc(F)c4)CC3)nn12 [Compound 383, (S)-6-(4-(5-(3,5-difluorophenyl)-4,5-dihydro-1H-pyrazole-1-carbonyl)piperazin-1-yl)imidazo[1,2-b]pyridazine-3-carbonitrile] | 6.00 to 9.00
19 | O=C(N1CC(Oc2ccc3ccc(=O)[nH]c3c2)C1)N1N=CCC1c1cc(F)cc(F)c1 (centres unmarked) [Compound 204, 7-((1-(5-(3,5-difluorophenyl)-4,5-dihydro-1H-pyrazole-1-carbonyl)azetidin-3-yl)oxy)quinolin-2(1H)-one] | 6.00 to 9.00
20 | O=C(N1CC(Oc2cc3[nH]c(=O)ccc3cc2F)C1)N1N=CC[C@H]1c1cc(F)cc(F)c1 [Compound 253, (S)-7-((1-(5-(3,5-difluorophenyl)-4,5-dihydro-1H-pyrazole-1-carbonyl)140zetidine-3-yl)oxy)-6-fluoroquinolin-2(1H)-one] | 6.00 to 9.00
21 | N#Cc1ccnc(O[C@@H]2CCN(C(=O)N3N=CC[C@H]3c3cc(F)cc(F)c3)C2)n1 [Compound 359, 2-(((R)-1-((S)-5-(3,5-difluorophenyl)-4,5-dihydro-1H-pyrazole-1-carbonyl)pyrrolidin-3-yl)oxy)pyrimidine-4-carbonitrile] | 6.00 to 9.00
22 | O=C(N1CC(=Cc2cc3[nH]nc(F)c3cc2F)C1)N1N=CCC1c1ccccc1 (centres unmarked) [Compound 302, (3-((3,5-difluoro-1H-indazol-6-yl)methylene)azetidin-1-yl)(5-phenyl-4,5-dihydro-1H-pyrazol-1-yl)methanone] | 6.00 to 9.00
23 | Cc1n[nH]c2cc(C=C3CN(C(=O)N4N=CC[C@H]4c4cc(F)cc(F)c4)C3)ccc12 [Compound 289, (S)-(5-(3,5-difluorophenyl)-4,5-dihydro-1H-pyrazol-1-yl)(3-((3-methyl-1H-indazol-6-yl)methylene)azetidin-1-yl)methanone] | 6.00 to 9.00
24 | O=C(N1CC(=Cc2ccc(F)nc2)C1)N1N=CCC1c1cncc(F)c1 (centres unmarked) [Compound 307, (5(5-fluoropyridin-3-yl)-4,5-dihydro-H-pyrazol-1-yl)(3-((6-fluoropyridin-3-yl)methylene)azetidin-1-yl)methanone] | 6.00 to 9.00
25 | O=C(N1CCCCC1)N1N=CCC1c1ccccc1 (centres unmarked) [Compound 7, (5-phenyl-4,5-dihydro-1H-pyrazol-1-yl)(piperidin-1-yl)methanone] | 6.00 to 9.00
26 | Cc1nnc(N2CCN(C(=O)N3N=CC[C@H]3c3cc(F)cc(F)c3)CC2)s1 [Compound 384, (S)-(5-(3,5-difluorophenyl)-4,5-dihydro-1H-pyrazol-1-yl)(4-(5-methyl-1,3,4-thiadiazol-2-yl)piperazin-1-yl)methanone] | 6.00 to 9.00
27 | Nc1cc(F)c(F)c(C=C2CN(C(=O)N3N=CC[C@H]3c3cc(F)cc(F)c3)C2)c1 [Compound 299, (S)-(3-(5-amino-2,3-difluorobenzylidene)azetidin-1-yl)(5-(3,5-difluorophenyl)-4,5-dihydro-1H-pyrazol-1-yl)methanone] | 6.00 to 9.00
28 | N#Cc1cc(F)cc([C@@H]2CC=NN2C(=O)N2CC(Oc3ccc4c(c3)NC(=O)CO4)C2)c1 [Compound 198, (S)-3-fluoro-5-(1-(3-((3-oxo-3,4-dihydro-2H-benzo[b][1,4]oxazin-6-yl)oxy)azetidine-1-carbonyl)-4,5-dihydro-1H-pyrazol-5-yl)benzonitrile] | 6.00 to 9.00
29 | CNc1nccc(O[C@@H]2CCN(C(=O)N3N=CC[C@H]3c3cc(F)cc(F)c3)C2)n1 [Compound 370] | 6.00 to 9.00
